Test results published in patent publication US20250057827A1, “CYTOTOXICITY TARGETING CHIMERAS FOR PROSTATE SPECIFIC MEMBRANE ANTIGEN-EXPRESSING CELLS” (GLAXOSMITHKLINE INTELLECTUAL PROPERTY DEVELOPMENT LIMITED, priority 2022, published 2025).

Each molecule was assayed against T1, PSMA (target cells: LNCaP cells) (Homo sapiens, UniProt Q04609) (assay: Antibody dependent cellular cytotoxicity (ADCC) reporter assay). Settings: anti-cotinine antibody (SEQ ID NO: 11/12), Jurkat FcγRIIIa NFAT-luciferase reporter cells, 12-18 hours, EC50 in molar, average if more than one run.
T1 construct: Target cells: LNCaP cells (typically 1000-20,000 cells per well); endogenous in cells; host or cells: LNCaP cells (target cells); Jurkat FcγRIIIa/NFAT-luciferase reporter cells also in the well
T1 sequence (Q04609 whole entry): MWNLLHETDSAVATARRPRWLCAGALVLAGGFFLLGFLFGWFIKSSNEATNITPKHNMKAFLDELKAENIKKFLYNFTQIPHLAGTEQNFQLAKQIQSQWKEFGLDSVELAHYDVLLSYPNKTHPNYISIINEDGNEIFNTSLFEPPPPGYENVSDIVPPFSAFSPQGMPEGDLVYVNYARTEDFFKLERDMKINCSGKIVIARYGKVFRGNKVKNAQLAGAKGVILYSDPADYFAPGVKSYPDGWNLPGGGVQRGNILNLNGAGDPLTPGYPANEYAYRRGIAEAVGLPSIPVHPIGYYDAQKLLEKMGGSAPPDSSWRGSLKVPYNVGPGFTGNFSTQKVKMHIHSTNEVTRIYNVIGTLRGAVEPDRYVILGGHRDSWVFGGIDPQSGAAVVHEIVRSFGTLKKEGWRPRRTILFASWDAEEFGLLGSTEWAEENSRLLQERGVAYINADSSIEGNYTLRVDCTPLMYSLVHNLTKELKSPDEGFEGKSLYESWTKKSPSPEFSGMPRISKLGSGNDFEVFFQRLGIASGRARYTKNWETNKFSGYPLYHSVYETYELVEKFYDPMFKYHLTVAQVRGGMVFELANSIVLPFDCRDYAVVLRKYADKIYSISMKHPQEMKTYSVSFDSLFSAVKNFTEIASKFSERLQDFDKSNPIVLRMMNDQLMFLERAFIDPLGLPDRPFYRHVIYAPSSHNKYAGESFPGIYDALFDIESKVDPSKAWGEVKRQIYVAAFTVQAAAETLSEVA
Format: cell-based
Set-up: key to ADCC Reporter Assay pEC50: Inactive: inactive = pEC50 < 5
Experimental: An antibody dependent cellular cytotoxicity (ADCC) reporter assay was conducted using the following four assay components: (i) ARM compound of Formula (I) targeting PSMA (concentrations ranging from 1 pM to 10 μM); (ii) anti-cotinine antibody having a heavy chain sequence of SEQ ID NO: 11 and a light chain sequence of SEQ ID NO: 12 (rabbit variable region with human IgG1 Fc domain containing DE mutation (S239D/I332E)) (concentrations ranging from 0.01 μg/mL-200 μg/mL); (iii) Target cells: LNCaP cells (typically 1000-20,000 cells per well); and (iv) Reporter cells—Jurkat cells engineered to express FcγRIIIa with a reporter gene luciferase under the control of the NFAT promoter (typically 3000-75,000 cells per well). Reagents were combined in final volume of 20 μL in 384—well tissue culture treated plate. All four assay components were incubated together for about 12-18 hours. Thereafter, BioGlo Detection reagent (Promega) was added to the wells to lyse the cells and provide a substrate for the luciferase reporter protein.
Luminescence signal was measured on a microplate reader capable of measuring luminescence and signal: background was calculated by dividing the signal of a test well by the signal obtained when no compound of formula (I) was included in the assay. EC50 calculations were done using Graphpad Prism Software, specifically a nonlinear regression curve fit (Y=Bottom+(Top−Bottom)/(1+10^((Log EC50−X)*HillSlope))).
ARMs compounds of Formula (I) were tested for ADCC activity in the above assay in one or more experimental runs and the results are shown in Table 3 below. Potency of the compounds of Formula (I) is reported as a pEC50 values. The pEC50 value is the negative log of the EC50 value, wherein the EC50 value is half maximal effective concentration measured in molar (M). For compounds tested in more than one experimental run, the pEC50 value is reported as an average.

With `CN1C(=O)C[C@H](C(=O)N[C@@H](Cc2ccc3ccccc3c2)C(=O)NCCCC[C@H](NC(=O)N[C@@H](CCC(=O)O)C(=O)O)C(=O)O)[C@H]1c1cccnc1` [Example 10, (((S)-1-Carboxy-5-((S)-2-((2S,3S)-1-methyl-5-oxo-2-(pyridin-3-yl)pyrrolidine-3-carboxamido)-3-(naphthalen-2-yl)propanamido)pentyl)carbamoyl)-L-glutamic acid] the “ADCC Reporter Assay pEC50” value was “Inactive^1”.

Same assay, conditions: anti-cotinine antibody (SEQ ID NO: 11/12), Jurkat FcγRIIIa NFAT-luciferase reporter cells, 12-18 hours, EC50 in molar, average if more than one run, read-out: ADCC Reporter Assay pEC50 (converted)

`CN1C(=O)C[C@H](C(=O)NCCO[C@H]2CC[C@H](OCCCC(=O)N[C@H]3CC[C@H](C(=O)N[C@H]4CC[C@H](NC(=O)CC[C@H](NC(=O)N[C@@H](CCC(=O)O)C(=O)O)C(=O)O)CC4)CC3)CC2)[C@H]1c1cccnc1` [Example 4, (((S)-1-Carboxy-4-(((1R,4R)-4-((1R,4R)-4-(4-(((1S,4R)-4-(2-((2S,3S)-1-methyl-5-oxo-2-(pyridin-3-yl)pyrrolidine-3-carboxamido)ethoxy)cyclohexyl)oxy)butanamido)cyclohexane-1-carboxamido)cyclohexyl)amino)-4-oxobutyl)carbamoyl)-L-glutamic acid] and `CN1C(=O)C[C@H](C(=O)NCCO[C@H]2CC[C@H](OCCCC(=O)N[C@H]3CC[C@H](C(=O)N[C@H]4CC[C@@H](NC(=O)CC[C@H](NC(=O)N[C@@H](CCC(=O)O)C(=O)O)C(=O)O)CC4)CC3)CC2)[C@H]1c1cccnc1` [Example 2, (((S)-1-Carboxy-4-(((1S,4S)-4-((1R,4S)-4-(4-(((1S,4R)-4-(2-((2S,3S)-1-methyl-5-oxo-2-(pyridin-3-yl)pyrrolidine-3-carboxamido)ethoxy)cyclohexyl)oxy)butanamido)cyclohexane-1-carboxamido)cyclohexyl)amino)-4-oxobutyl)carbamoyl)-L-glutamic acid] are the same in EC50: 50.1 nM for the first, 50.1 nM for the second.

First: CN1C(=O)C[C@H](C(=O)NCCOCCOCCOCCOCCOCCOCCOCCOCCOCCOCCOCCOCCC(=O)N[C@@H](Cc2ccc3ccccc3c2)C(=O)NCCCC[C@H](NC(=O)N[C@@H](CCC(=O)O)C(=O)O)C(=O)O)[C@H]1c1cccnc1 [Example 9, (((S)-1-Carboxy-5-((S)-2-(1-((2S,3S)-1-methyl-5-oxo-2-(pyridin-3-yl)pyrrolidin-3-yl)-1-oxo-5,8,11,14,17,20,23,26,29,32,35,38-dodecaoxa-2-azahentetracontan-41-amido)-3-(naphthalen-2-yl)propanamido)pentyl)carbamoyl)-L-glutamic acid]
Second: CN1C(=O)C[C@H](C(=O)NCCOCCOCCOCCOCCOCCOCCOCCOCCOCCOCCOCCOCCC(=O)NCCNC(=O)[C@H](Cc2ccccc2)NC(=O)[C@H](Cc2ccccc2)NC(=O)CCCCCCCNC(=O)CC[C@H](NC(=O)N[C@@H](CCC(=O)O)C(=O)O)C(=O)O)[C@H]1c1cccnc1 [Example 7, (47S,50S,64S,68S)-47,50-Dibenzyl-1-((2S,3S)-1-methyl-5-oxo-2-(pyridin-3-yl)pyrrolidin-3-yl)-1,41,46,49,52,61,66-heptaoxo-5,8,11,14,17,20,23,26,29,32,35,38-dodecaoxa-2,42,45,48,51,60,65,67-octaazaheptacontane-64,68,70-tricarboxylic acid]
The EC50 of the first is 14-fold lower: 8.91 nM for the first, 126 nM for the second.

Going from `CN1C(=O)C[C@H](C(=O)NCCO[C@H]2CC[C@H](OCCCC(=O)N[C@H]3CC[C@H](C(=O)N[C@@H](Cc4ccc5ccccc5c4)C(=O)NCCCC[C@H](NC(=O)N[C@@H](CCC(=O)O)C(=O)O)C(=O)O)CC3)CC2)[C@H]1c1cccnc1` (racemic) [Example 8, (((S)-1-Carboxy-5-((S)-2-((1R,4S)-4-(4-(((1S,4R)-4-(2-((2S,3S)-1-methyl-5-oxo-2-(pyridin-3-yl)pyrrolidine-3-carboxamido)ethoxy)cyclohexyl)oxy)butanamido)cyclohexane-1-carboxamido)-3-(naphthalen-2-yl)propanamido)pentyl)carbamoyl)-L-glutamic acid] to `CN1C(=O)C[C@H](C(=O)NCCO[C@H]2CC[C@H](OCCCC(=O)N[C@H]3CC[C@H](C(=O)NCCNC(=O)CC[C@H](NC(=O)N[C@@H](CCC(=O)O)C(=O)O)C(=O)O)CC3)CC2)[C@H]1c1cccnc1` [Example 3, (9S,13S)-1-((1R,4R)-4-(4-(((1S,4R)-4-(2-((2S,3S)-1-Methyl-5-oxo-2-(pyridin-3-yl)pyrrolidine-3-carboxamido)ethoxy)cyclohexyl)oxy)butanamido)cyclohexyl)-1,6,11-trioxo-2,5,10,12-tetraazapentadecane-9,13,15-tricarboxylic acid], the EC50 rises from 2.24 nM to 126 nM (56-fold).

`CN1C(=O)C[C@H](C(=O)NCCO[C@H]2CC[C@H](OCCCC(=O)N[C@H]3CC[C@H](C(=O)N4CCN(C(=O)CC[C@H](NC(=O)N[C@@H](CCC(=O)O)C(=O)O)C(=O)O)CC4)CC3)CC2)[C@H]1c1cccnc1` [Example 1, (((S)-1-Carboxy-4-(4-((1R,4R)-4-(4-(((1S,4R)-4-(2-((2S,3S)-1-methyl-5-oxo-2-(pyridin-3-yl)pyrrolidine-3-carboxamido)ethoxy)cyclohexyl)oxy)butanamido)cyclohexane-1-carbonyl)piperazin-1-yl)-4-oxobutyl)carbamoyl)-L-glutamic acid] and `CN1C(=O)C[C@H](C(=O)NCCO[C@H]2CC[C@H](OCCCC(=O)N[C@H]3CC[C@H](C(=O)NCCNC(=O)[C@H](Cc4ccccc4)NC(=O)[C@H](Cc4ccccc4)NC(=O)CCCCCCCNC(=O)CC[C@H](NC(=O)N[C@@H](CCC(=O)O)C(=O)O)C(=O)O)CC3)CC2)[C@H]1c1cccnc1` [Example 6, (7S,10S,24S,28S)-7,10-dibenzyl-1-((1R,4S)-4-(4-(((1S,4R)-4-(2-((2S,3S)-1-methyl-5-oxo-2-(pyridin-3-yl)pyrrolidine-3-carboxamido)ethoxy)cyclohexyl)oxy)butanamido)cyclohexyl)-1,6,9,12,21,26-hexaoxo-2,5,8,11,20,25,27-heptaazatriacontane-24,28,30-tricarboxylic acid] are within 1.5-fold of each other in EC50: 50.1 nM for the first, 39.8 nM for the second.

`CN1C(=O)C[C@H](C(=O)NCCNC(=O)[C@H](Cc2ccccc2)NC(=O)[C@H](Cc2ccccc2)NC(=O)CCCCCCCNC(=O)CC[C@H](NC(=O)N[C@@H](CCC(=O)O)C(=O)O)C(=O)O)[C@H]1c1cccnc1` [Example 5, (7S,10S,24S,28S)-7,10-Dibenzyl-1-((2S,3S)-1-methyl-5-oxo-2-(pyridin-3-yl)pyrrolidin-3-yl)-1,6,9,12,21,26-hexaoxo-2,5,8,11,20,25,27-heptaazatriacontane-24,28,30-tricarboxylic acid] gave an EC50 of 39.8 nM.
